Experimental data published in US20230278972A1, “SUBSTITUTED HALOALKYL SULFONANILIDE HERBICIDES” (FMC Corporation, priority 2020, published 2023).

What was measured:
Assay type in all cases: in vivo
kochia (Bassia scoparia) [1] = assay: Test A postemergence, kochia; details: Postemergence; for Kochia plant response rating: 500 g ai/ha, visual injury vs untreated controls after approx. 10 days
Procedure, shortened: (§1)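 Compounds in non-phytotoxic solvent with surfactant. Soil: loam/sand. Preemergence via directed soil spray after seeding; postemergence on seedlings 2–10 cm, one- to two-leaf.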

[2] = tested on: ragweed (common ragweed, Ambrosia artemisiifolia); assay: Test A preemergence, ragweed; details: Preemergence; for Ragweed plant response rating: visual injury on 0 to 100 scale (0 no effect, 100 complete control), approximately 10 days; for Plant response rating, Ragweed: 0 to 100 scale (0 no effect, 100 complete control)
Procedure, shortened: as §1

[3] = tested on: ragweed (common ragweed, Ambrosia artemisiifolia); assay: Test A postemergence, ragweed; details: Postemergence; for Ragweed plant response rating: 500 g ai/ha, visual injury vs untreated controls after approx. 10 days
Procedure, shortened: as §1

[4] = tested on: Ryegrass, Italian (Italian ryegrass, Lolium multiflorum); assay: Test A preemergence, Ryegrass, Italian; details: Preemergence; for Ryegrass, Italian plant response rating: visual injury on 0 to 100 scale (0 no effect, 100 complete control), approximately 10 days; for Plant response rating, Ryegrass, Italian: 0 to 100 scale (0 no effect, 100 complete control)
Procedure, shortened: as §1

[5] = tested on: pigweed (Amaranthus retroflexus); assay: Test A postemergence, pigweed; details: Postemergence; for Pigweed plant response rating: 500 g ai/ha, visual injury vs untreated controls after approx. 10 days
Procedure, shortened: as §1

[6] = tested on: galium (catchweed bedstraw, Galium aparine); assay: Test A postemergence, galium; details: Postemergence; for Galium plant response rating: 500 g ai/ha, visual injury vs untreated controls after approx. 10 days
Procedure, shortened: (§2)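 Directed soil spray at planting gave the preemergence treatment, while foliar application to one- to two-leaf seedlings (2–10 cm) gave the postemergence one; pots held a loam and sand mixture and chemicals were carried in a non-phytotoxic solvent with surfactant.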

corn (Zea mays) = assay: Test A postemergence, corn; details: Postemergence; for Corn plant response rating: 500 g ai/ha, visual injury vs untreated controls after approx. 10 days
Procedure, shortened: as §1

[7] = tested on: Foxtail, Giant (giant foxtail, Setaria faberi); assay: Test A preemergence, Foxtail, Giant; details: Preemergence; for Foxtail, Giant plant response rating: visual injury on 0 to 100 scale (0 no effect, 100 complete control), approximately 10 days; for Plant response rating, Foxtail, Giant: 0 to 100 scale (0 no effect, 100 complete control)
Procedure, shortened: as §1

[8] = tested on: blackgrass (Alopecurus myosuroides); assay: Test A postemergence, blackgrass; details: Postemergence, 0 to 100 scale (0 no effect, 100 complete control); for Blackgrass plant response rating: 500 g ai/ha, visual injury vs untreated controls after approx. 10 days
Procedure, shortened: as §1

[9] = tested on: barnyardgrass (Echinochloa crus-galli); assay: Test A postemergence, barnyardgrass; details: Postemergence, 0 to 100 scale (0 no effect, 100 complete control); for Barnyardgrass plant response rating: 500 g ai/ha, visual injury vs untreated controls after approx. 10 days
Procedure, shortened: as §2

[10] = tested on: Ryegrass, Italian (Italian ryegrass, Lolium multiflorum); assay: Test A postemergence, Ryegrass, Italian; details: Postemergence; for Ryegrass, Italian plant response rating: 500 g ai/ha, visual injury vs untreated controls after approx. 10 days
Procedure, shortened: as §1

kochia (Bassia scoparia) [11] = assay: Test A preemergence, kochia; details: Preemergence; for Kochia plant response rating: visual injury on 0 to 100 scale (0 no effect, 100 complete control), approximately 10 days; for Plant response rating, Kochia: 0 to 100 scale (0 no effect, 100 complete control)
Procedure, shortened: as §1

[12] = tested on: wheat (Triticum aestivum); assay: Test A postemergence, wheat; details: Postemergence; for Wheat plant response rating: 500 g ai/ha, visual injury vs untreated controls after approx. 10 days
Procedure, shortened: as §2

[13] = tested on: barnyardgrass (Echinochloa crus-galli); assay: Test A preemergence, barnyardgrass; details: Preemergence; for Barnyardgrass plant response rating: visual injury on 0 to 100 scale (0 no effect, 100 complete control), approximately 10 days; for Plant response rating, Barnyardgrass: 0 to 100 scale (0 no effect, 100 complete control)
Procedure, shortened: as §1

[14] = tested on: Foxtail, Giant (giant foxtail, Setaria faberi); assay: Test A postemergence, Foxtail, Giant; details: Postemergence; for Foxtail, Giant plant response rating: 500 g ai/ha, visual injury vs untreated controls after approx. 10 days
Procedure, shortened: as §1

[15] = tested on: pigweed (Amaranthus retroflexus); assay: Test A preemergence, pigweed; details: for Pigweed plant response rating: visual injury on 0 to 100 scale (0 no effect, 100 complete control), approximately 10 days; for Plant response rating, Pigweed: 0 to 100 scale (0 no effect, 100 complete control)
Procedure, shortened: as §2

[16] = 125 g ai/ha, visual injury approx. 10 days, 0 to 100 scale (0 no effect, 100 complete control)
[17] = 0 to 100 scale (0 no effect, 100 complete control)
[18] = 125 g ai/ha, visual injury approx. 10 days
[19] = 31 g ai/ha, visual injury on 0 to 100 scale (0 no effect, 100 complete control), approx. 10 days
[20] = 31 g ai/ha, visual injury, approx. 10 days
[21] = 125 g ai/ha, 0 to 100 scale (0 no effect, 100 complete control)
[22] = 125 g ai/ha, visual injury, approx. 10 days

Structure (SMILES): Cc1cc(C)c(C2=NOC3(C2)CC(C)(C)CC(C)(C)C3)cc1NS(=O)(=O)C(F)(F)F [Compound 122]
- Plant response rating, Kochia (kochia (Bassia scoparia) [1]; [16]): 0
- Kochia plant response rating (kochia (Bassia scoparia) [1]; [17]): 10
- Ragweed plant response rating ([2]; 125 g ai/ha): 0
- Plant response rating, Ragweed ([2]; 500 g ai/ha): 0
- Plant response rating, Ragweed [3, 16]: 0
- Ragweed plant response rating [3, 17]: 0
- Ryegrass, Italian plant response rating ([4]; 125 g ai/ha): 30
- Plant response rating, Ryegrass, Italian ([4]; 500 g ai/ha): 80
- Plant response rating, Pigweed [5, 16]: 20
- Pigweed plant response rating [5, 17]: 50
- Plant response rating, Galium [6, 16]: 60
- Galium plant response rating [6, 17]: 90
- Plant response rating, Corn (corn (Zea mays); [16]): 0
- Corn plant response rating (corn (Zea mays); [17]): 0
- Foxtail, Giant plant response rating ([7]; 125 g ai/ha): 50
- Plant response rating, Foxtail, Giant ([7]; 500 g ai/ha): 100
- Plant response rating, Blackgrass [8, 18]: 0
- Blackgrass plant response rating [8]: 10
- Plant response rating, Barnyardgrass [9, 18]: 10
- Barnyardgrass plant response rating [9]: 70
- Plant response rating, Ryegrass, Italian [10, 16]: 0
- Ryegrass, Italian plant response rating [10, 17]: 0
- Kochia plant response rating (kochia (Bassia scoparia) [11]; 125 g ai/ha): 70
- Plant response rating, Kochia (kochia (Bassia scoparia) [11]; 500 g ai/ha): 30
- Plant response rating, Wheat [12, 16]: 0
- Wheat plant response rating [12, 17]: 0
- Barnyardgrass plant response rating ([13]; 125 g ai/ha): 0
- Plant response rating, Barnyardgrass ([13]; 500 g ai/ha): 70
- Plant response rating, Foxtail, Giant [14, 16]: 0
- Foxtail, Giant plant response rating [14, 17]: 20
- Pigweed plant response rating ([15]; 125 g ai/ha): 0
- Plant response rating, Pigweed ([15]; 500 g ai/ha): 30

Structure (SMILES): COC1CN(C(=O)c2cc(NS(=O)(=O)C(F)(F)F)c(C)cc2C)C1 [Compound 111]
- Plant response rating, Kochia (kochia (Bassia scoparia) [1]; [19]): 20
- Plant response rating, Kochia (kochia (Bassia scoparia) [1]; [16]): 60
- Plant response rating, Ragweed [2, 20]: 10
- Ragweed plant response rating ([2]; 125 g ai/ha): 40
- Plant response rating, Ragweed [3, 19]: 70
- Plant response rating, Ragweed [3, 16]: 90
- Plant response rating, Ryegrass, Italian [4, 20]: 0
- Ryegrass, Italian plant response rating ([4]; 125 g ai/ha): 70
- Plant response rating, Pigweed [5, 19]: 20
- Plant response rating, Pigweed [5, 16]: 90
- Plant response rating, Galium [6, 19]: 50
- Plant response rating, Galium [6, 16]: 70
- Plant response rating, Corn (corn (Zea mays); [19]): 0
- Plant response rating, Corn (corn (Zea mays); [16]): 40
- Plant response rating, Foxtail, Giant [7, 20]: 0
- Foxtail, Giant plant response rating ([7]; 125 g ai/ha): 60
- Plant response rating, Blackgrass ([8]; 31 g ai/ha): 0
- Plant response rating, Blackgrass [8, 18]: 0
- Plant response rating, Barnyardgrass ([9]; 31 g ai/ha): 40
- Plant response rating, Barnyardgrass [9, 18]: 80
- Plant response rating, Ryegrass, Italian [10, 19]: 30
- Plant response rating, Ryegrass, Italian [10, 16]: 30
- Plant response rating, Kochia (kochia (Bassia scoparia) [11]; [20]): 0
- Kochia plant response rating (kochia (Bassia scoparia) [11]; 125 g ai/ha): 50
- Plant response rating, Wheat [12, 19]: 0
- Plant response rating, Wheat [12, 16]: 50
- Plant response rating, Barnyardgrass [13, 20]: 10
- Barnyardgrass plant response rating ([13]; 125 g ai/ha): 30
- Plant response rating, Foxtail, Giant [14, 19]: 0
- Plant response rating, Foxtail, Giant [14, 16]: 60
- Plant response rating, Pigweed [15, 20]: 10
- Pigweed plant response rating ([15]; 125 g ai/ha): 90

Structure (SMILES): Cc1cc(C)c(C(=O)N2CCC(S(C)(=O)=O)CC2)cc1NS(=O)(=O)C(F)(F)F [Compound 233]
- Plant response rating, Kochia (kochia (Bassia scoparia) [1]; [21]): 0
- Kochia plant response rating (kochia (Bassia scoparia) [1]; [17]): 30
- Plant response rating, Ragweed [2, 22]: 0
- Ragweed plant response rating ([2]; 500 g ai/ha): 30
- Plant response rating, Ragweed [3, 21]: 0
- Ragweed plant response rating [3, 17]: 0
- Plant response rating, Ryegrass, Italian [4, 22]: 20
- Ryegrass, Italian plant response rating ([4]; 500 g ai/ha): 70
- Plant response rating, Pigweed [5, 21]: 30
- Pigweed plant response rating [5, 17]: 60
- Plant response rating, Galium [6, 21]: 80
- Galium plant response rating [6, 17]: 90
- Plant response rating, Corn (corn (Zea mays); [21]): 0
- Corn plant response rating (corn (Zea mays); [17]): 0
- Plant response rating, Foxtail, Giant [7, 22]: 40
- Foxtail, Giant plant response rating ([7]; 500 g ai/ha): 100
- Plant response rating, Blackgrass ([8]; 125 g ai/ha): 0
- Blackgrass plant response rating [8]: 40
- Plant response rating, Barnyardgrass ([9]; 125 g ai/ha): 0
- Barnyardgrass plant response rating [9]: 0
- Plant response rating, Ryegrass, Italian [10, 21]: 0
- Ryegrass, Italian plant response rating [10, 17]: 0
- Plant response rating, Kochia (kochia (Bassia scoparia) [11]; [22]): 0
- Kochia plant response rating (kochia (Bassia scoparia) [11]; 500 g ai/ha): 80
- Plant response rating, Wheat [12, 21]: 0
- Wheat plant response rating [12, 17]: 40
- Plant response rating, Barnyardgrass [13, 22]: 0
- Plant response rating, Barnyardgrass ([13]; 500 g ai/ha): 30
- Plant response rating, Foxtail, Giant [14, 21]: 0
- Foxtail, Giant plant response rating [14, 17]: 0
- Plant response rating, Pigweed [15, 22]: 60
- Pigweed plant response rating ([15]; 500 g ai/ha): 90

Structure (SMILES): Cc1cc(C)c(N(S(=O)(=O)C(F)(F)F)S(=O)(=O)C(F)(F)F)cc1C(=O)N(C)CC1CC1 [Compound 169]
- Plant response rating, Kochia (kochia (Bassia scoparia) [1]; [21]): 20
- Kochia plant response rating (kochia (Bassia scoparia) [1]; [17]): 50
- Ragweed plant response rating ([2]; 125 g ai/ha): 40
- Plant response rating, Ragweed ([2]; 500 g ai/ha): 80
- Plant response rating, Ragweed [3, 21]: 60
- Ragweed plant response rating [3, 17]: 90
- Ryegrass, Italian plant response rating ([4]; 125 g ai/ha): 50
- Plant response rating, Ryegrass, Italian ([4]; 500 g ai/ha): 100
- Plant response rating, Pigweed [5, 21]: 40
- Pigweed plant response rating [5, 17]: 50
- Plant response rating, Galium [6, 21]: 80
- Galium plant response rating [6, 17]: 90
- Plant response rating, Corn (corn (Zea mays); [21]): 50
- Corn plant response rating (corn (Zea mays); [17]): 90
- Foxtail, Giant plant response rating ([7]; 125 g ai/ha): 20
- Plant response rating, Foxtail, Giant ([7]; 500 g ai/ha): 90
- Plant response rating, Blackgrass ([8]; 125 g ai/ha): 0
- Blackgrass plant response rating [8]: 20
- Plant response rating, Barnyardgrass ([9]; 125 g ai/ha): 40
- Barnyardgrass plant response rating [9]: 90
- Plant response rating, Ryegrass, Italian [10, 21]: 10
- Ryegrass, Italian plant response rating [10, 17]: 30
- Kochia plant response rating (kochia (Bassia scoparia) [11]; 125 g ai/ha): 0
- Plant response rating, Kochia (kochia (Bassia scoparia) [11]; 500 g ai/ha): 30
- Plant response rating, Wheat [12, 21]: 0
- Wheat plant response rating [12, 17]: 0
- Barnyardgrass plant response rating ([13]; 125 g ai/ha): 30
- Plant response rating, Barnyardgrass ([13]; 500 g ai/ha): 100
- Plant response rating, Foxtail, Giant [14, 21]: 10
- Foxtail, Giant plant response rating [14, 17]: 40
- Pigweed plant response rating ([15]; 125 g ai/ha): 60
- Plant response rating, Pigweed ([15]; 500 g ai/ha): 80
